Measurements from US20130303532A1, “IMIDAZOPYRAZINES FOR USE AS MPS-1 AND TKK INHIBITORS IN THE TREATMENT HYPERPROLIFERATIVE DISORDERS” (BAYER INTELLECTUAL PROPERTY GmbH, priority 2010, published 2013).
Where two headings read alike, the source gives them in different places.

Biological target: T1, human kinase Mps-1 (Homo sapiens, UniProt P33981)
T1 construct: N-terminally GST-tagged human full length recombinant Mps-1 kinase; GST (N); purchased Invitrogen, Karslruhe, Germany PV4071
T1 sequence (P33981 1-857): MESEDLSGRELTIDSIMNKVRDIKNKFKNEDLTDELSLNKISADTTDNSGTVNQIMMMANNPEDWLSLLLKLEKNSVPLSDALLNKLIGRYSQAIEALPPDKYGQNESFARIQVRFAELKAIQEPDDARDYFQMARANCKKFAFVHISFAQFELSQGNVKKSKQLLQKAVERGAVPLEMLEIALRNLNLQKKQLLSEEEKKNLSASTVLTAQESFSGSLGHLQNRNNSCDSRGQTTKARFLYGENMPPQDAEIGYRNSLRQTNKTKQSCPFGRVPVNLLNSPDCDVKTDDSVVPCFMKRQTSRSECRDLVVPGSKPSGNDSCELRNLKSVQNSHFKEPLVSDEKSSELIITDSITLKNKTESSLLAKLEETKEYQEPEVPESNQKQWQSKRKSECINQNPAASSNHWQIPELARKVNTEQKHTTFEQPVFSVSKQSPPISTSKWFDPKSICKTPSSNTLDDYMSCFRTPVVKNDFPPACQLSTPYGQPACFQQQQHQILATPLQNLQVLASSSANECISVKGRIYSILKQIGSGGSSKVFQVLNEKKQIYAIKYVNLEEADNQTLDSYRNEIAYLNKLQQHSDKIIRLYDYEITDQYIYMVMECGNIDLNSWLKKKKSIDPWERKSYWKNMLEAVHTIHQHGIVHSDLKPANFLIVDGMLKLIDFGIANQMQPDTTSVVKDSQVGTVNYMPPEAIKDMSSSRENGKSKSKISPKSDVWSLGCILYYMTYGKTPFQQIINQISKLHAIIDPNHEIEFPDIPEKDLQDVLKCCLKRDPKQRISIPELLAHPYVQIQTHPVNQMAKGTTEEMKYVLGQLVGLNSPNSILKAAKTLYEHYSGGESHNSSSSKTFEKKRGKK
Assay: Mps-1 kinase assay (TR-FRET)
Assay type: biochemical
Conditions: N-terminally GST-tagged human full length recombinant Mps-1, 10 μM ATP, 1 μM biotinylated peptide substrate, 60 min at 22° C.

Row | IC50 (read-out: Mps1 IC50) [nM] | Structure (SMILES) | IC50 (Mps1 IC50 [nM]) [nM]
1 | 1970 | O=C(NC1CC1)c1ccc(-c2cnc3c(NCCCN4CCCC4=O)nccn23)cc1Cl [Example 7-35, 2-chloro-N-cyclopropyl-4-(8-{[3-(2-oxopyrrolidin-1-yl)propyl]amino}imidazo[1,2-a]pyrazin-3-yl)benzamide] | –
2 | – | COCCNc1nccn2c(-c3ccc(C(=O)NC4CC4)c(Cl)c3)cnc12 [Example 7-36, 2-chloro-N-cyclopropyl-4-{8-[(2-methoxyethyl)amino]imi-dazo[1,2-a]pyrazin-3-yl}benzamide] | 593
3 | – | O=C(NC1CC1)c1ccc(-c2cnc3c(NCc4ccccc4F)nccn23)cc1Cl [Example 7-37, 2-chloro-N-cyclopropyl-4-{8-[(2-fluorobenzyl)amino]imi-dazo[1,2-a]pyrazin-3-yl}benzamide] | 93.8
4 | – | O=C(NC1CC1)c1ccc(-c2cnc3c(NCc4ccc(F)cc4)nccn23)cc1Cl [Example 7-38, 2-chloro-N-cyclopropyl-4-{8-[(4-fluorobenzyl)amino]imi-dazo[1,2-a]pyrazin-3-yl}benzamide] | 112
5 | – | O=C(NC1CC1)c1ccc(-c2cnc3c(NCCCCO)nccn23)cc1Cl [Example 7-39, 2-chloro-N-cyclopropyl-4-{8-[(4-hydroxybutyl)amino]imi-dazo[1,2-a]pyrazin-3-yl}benzamide] | 239
6 | 64.6 | O=C(NC1CC1)c1ccc(-c2cnc3c(NCc4ccccc4)nccn23)cc1Cl [Example 7-40, 4-[8-(benzylamino)imidazo[1,2-a]pyrazin-3-yl]-2-chloro-N-cyclopropylbenzamide] | –
7 | 17000 | CCNc1nccn2c(-c3ccc(C(=O)NC4CC4)c(Cl)c3)cnc12 [Example 7-42, 2-chloro-N-cyclopropyl-4-[8-(ethylamino)imidazo[1,2-a]pyrazin-3-yl]benzamide] | –
8 | – | O=C(NC1CC1)c1ccc(-c2cnc3c(NCCCO)nccn23)cc1Cl [Example 7-43, 2-chloro-N-cyclopropyl-4-{8-[(3-hydroxypropyl)amino]imi-dazo[1,2-a]pyrazin-3-yl}benzamide] | 430
9 | 54.2 | CCCCNc1nccn2c(-c3ccc(C(=O)NC4CC4)c(Cl)c3)cnc12 [Example 7-44, 4-[8-(butylamino)imidazo[1,2-a]pyrazin-3-yl]-2-chloro-N-cyclopropylbenzamide] | –
10 | 1750 | CC(=O)NCCNc1nccn2c(-c3ccc(C(=O)NC4CC4)c(Cl)c3)cnc12 [Example 7-45, 4-(8-{[2-(acetylamino)ethyl]ami-no)imidazo[1,2-a]pyrazin-3-yl)-2-chloro-N-cyclopropylbenzamide] | –
11 | 73.1 | O=C(NC1CC1)c1ccc(-c2cnc3c(NCC4CC4)nccn23)cc1Cl [Example 7-46, 2-chloro-N-cyclopropyl-4-{8-[(cyclopropylmethyl)ami-no]imidazo[1,2-a]pyrazin-3-yl}benzamide] | –
12 | 1190 | O=C(NC1CC1)c1ccc(-c2cnc3c(NCc4ccccn4)nccn23)cc1Cl [Example 7-47, 2-chloro-N-cyclopropyl-4-{8-[(pyridin-2-ylmethyl)amino]imidazo[1,2-a]pyrazin-3-yl}benzamide] | –
13 | 513 | O=C(NC1CC1)c1ccc(-c2cnc3c(NCc4cccnc4)nccn23)cc1Cl [Example 7-48, 2-chloro-N-cyclopropyl-4-{8-[(pyridin-3-ylmethyl)amino]imidazo[1,2-a]pyrazin-3-yl}benzamide] | –
14 | 387 | O=C(NC1CC1)c1ccc(-c2cnc3c(NCc4ccncc4)nccn23)cc1Cl [Example 7-49, 2-chloro-N-cyclopropyl-4-{8-[(pyridin-4-ylmethyl)amino]imidazo[1,2-a]pyrazin-3-yl}benzamide] | –
15 | – | O=C(NC1CC1)c1ccc(-c2cnc3c(NCc4ccco4)nccn23)cc1Cl [Example 7-50, 2-chloro-N-cyclopropyl-4-{8-[(furan-2-ylmethyl)amino]imi-dazo[1,2-a]pyrazin-3-yl}benzamide] | 209
16 | – | CC(C)CNc1nccn2c(-c3ccc(C(=O)NC4CC4)c(Cl)c3)cnc12 [Example 7-51, 2-chloro-N-cyclopropyl-4-{8-[(2-methylpropyl)amino]imi-dazo[1,2-a]pyrazin-3-yl}benzamide] | 15.7
17 | – | N#CCCNc1nccn2c(-c3ccc(C(=O)NC4CC4)c(Cl)c3)cnc12 [Example 7-52, 2-chloro-4-{8-[(2-cyanoethyl)amino]imi-dazo[1,2-a]pyrazin-3-yl}-N-cyclopropylbenzamide] | 272

Row | IC50 (read-out: Mps1 IC50) [nM] | Structure (SMILES) | IC50 (Mps1 IC50 [nM]) [nM]
18 | – | O=C(NC1CC1)c1ccc(-c2cnc3c(NCC(F)(F)C(F)(F)F)nccn23)cc1Cl [Example 7-53, 2-chloro-N-cyclopropyl-4-{8-[(2,2,3,3,3-pentafluoropropyl)amino]imi-dazo[1,2-a]pyrazin-3-yl}benzamide] | 106
19 | – | NC(=O)CCNc1nccn2c(-c3ccc(C(=O)NC4CC4)c(Cl)c3)cnc12 [Example 7-54, 4-{8-[(3-amino-3-oxopropyl)amino]imi-dazo[1,2-a]pyrazin-3-yl}-2-chloro-N-cyclopropylbenzamide] | 4870
20 | – | O=C(NC1CC1)c1ccc(-c2cnc3c(NCC(O)C(F)(F)F)nccn23)cc1Cl (stereo not drawn) [Example 7-55, 2-chloro-N-cyclopropyl-4-{8-[(3,3,3-trifluoro-2-hydroxypropyl)amino]imi-dazo[1,2-a]pyrazin-3-yl}benzamide] | 175
21 | – | O=C(NC1CC1)c1ccc(-c2cnc3c(NCCC(F)(F)F)nccn23)cc1Cl [Example 7-56, 2-chloro-N-cyclopropyl-4-{8-[(3,3,3-trifluoropropyl)amino]imi-dazo[1,2-a]pyrazin-3-yl}benzamide] | 43
22 | – | CC(O)CNc1nccn2c(-c3ccc(C(=O)NC4CC4)c(Cl)c3)cnc12 (stereo not drawn) [Example 7-57, 2-chloro-N-cyclopropyl-4-{8-[(2-hydroxypropyl)amino]imi-dazo[1,2-a]pyrazin-3-yl}benzamide] | 401
23 | – | COCCCNc1nccn2c(-c3ccc(C(=O)NC4CC4)c(Cl)c3)cnc12 [Example 7-58, 2-chloro-N-cyclopropyl-4-{8-[(3-methoxypropyl)amino]imi-dazo[1,2-a]pyrazin-3-yl}benzamide] | 485
24 | – | O=C(NC1CC1)c1ccc(-c2cnc3c(NCC(F)F)nccn23)cc1Cl [Example 7-59, 2-chloro-N-cyclopropyl-4-{8-[(2,2-difluoroethyl)amino]imi-dazo[1,2-a]pyrazin-3-yl}benzamide] | 239
25 | – | Cn1ccc(CNc2nccn3c(-c4ccc(C(=O)NC5CC5)c(Cl)c4)cnc23)n1 [Example 7-60, 2-chloro-N-cyclopropyl-4-(8-{[(1-methyl-1H-pyrazol-3-yl)methyl]amino}imi-dazo[1,2-a]pyrazin-3-yl)benzamide] | 767
26 | – | Cn1nccc1CNc1nccn2c(-c3ccc(C(=O)NC4CC4)c(Cl)c3)cnc12 [Example 7-61, 2-chloro-N-cyclopropyl-4-(8-{[(1-methyl-1H-pyrazol-5-yl)methyl]amino}imi-dazo[1,2-a]pyrazin-3-yl)benzamide] | 269
27 | – | Cn1cc(CNc2nccn3c(-c4ccc(C(=O)NC5CC5)c(Cl)c4)cnc23)cn1 [Example 7-62, 2-chloro-N-cyclopropyl-4-(8-{[(1-methyl-1H-pyrazol-4-yl)methyl]amino}imi-dazo[1,2-a]pyrazin-3-yl)benzamide] | 308
28 | – | CCOC(C)CNc1nccn2c(-c3ccc(C(=O)NC4CC4)c(Cl)c3)cnc12 (stereo not drawn) [Example 7-63, 2-chloro-N-cyclopropyl-4-{8-[(2-ethoxypropyl)amino]imi-dazo[1,2-a]pyrazin-3-yl}benzamide] | 409
29 | – | CC(C)(O)CNc1nccn2c(-c3ccc(C(=O)NC4CC4)c(Cl)c3)cnc12 [Example 7-64, 2-chloro-N-cyclopropyl-4-{8-[(2-hydroxy-2-methylpropyl)amino]imi-dazo[1,2-a]pyrazin-3-yl}benzamide] | 538
30 | – | O=C(NC1CC1)c1ccc(-c2cnc3c(NCc4ccc(Cl)s4)nccn23)cc1Cl [Example 7-65, 2-chloro-4-(8-{[(5-chlorothiophen-2-yl)methyl]amino}imi-dazo[1,2-a]pyrazin-3-yl)-N-cyclopropylbenzamide] | 25
31 | 519 | CS(=O)(=O)CCCNc1nccn2c(-c3ccc(C(=O)NC4CC4)c(Cl)c3)cnc12 [Example 7-66, 2-chloro-N-cyclopropyl-4-(8-{[3-(methylsulfonyl)propyl]ami-no}imidazo[1,2-a]pyrazin-3-yl)benzamide] | –
32 | – | O=C(NC1CC1)c1ccc(-c2cnc3c(NC[C@@H](O)CO)nccn23)cc1Cl [Example 7-68, 2-chloro-N-cyclopropyl-4-{8-[(2,3-dihydroxypropyl)amino]imi-dazo[1,2-a]pyrazin-3-yl}benzamide] | 1720
33 | 23.3 | CCCNc1nccn2c(-c3ccc(C(=O)NC4CC4)c(O)c3)cnc12 [Example 7-69, N-cyclopropyl-2-hydroxy-4-[8-(propylamino)imidazo[1,2-a]pyrazin-3-yl]benzamide] | –
